Experimental data as given in patent US20230002374A1, “GPR52 MODULATOR COMPOUNDS” (Heptares Therapeutics Limited, priority 2019, published 2023).

Key:
human GPR52 [1] = target: T1, human GPR52 (Homo sapiens, UniProt Q9Y2T5); assay: GPR52 Agonist Functional cAMP Assay;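 on all read-outs here: HEKf cells transduced with GPR52 BacMam for 24 h, 2000 per well, exposed to compounds 30 min at 37° C with 0.5 mM IBMX, cAMP read by HTRF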; settings: for EC50: pEC50 average, HEKf cells infected with human GPR52 BacMam virus, cAMP HTRF, 30 min at 37° C.; for Emax: maximal response normalised to DMSO (0%) and maximal compound 7m (J. Med. Chem., 2014, 57, 5226) response (100%)
Protocol: (§1) Following BacMam infection, cells were pelleted by centrifugation (335 g, 5 min), resuspended in cell freezing medium (Sigma) and frozen at −150° C. until required. On experiment day, 25 nL GPR52 compound dilutions, prepared in DMSO, were stamped onto proxiplates (PerkinElmer) by a LabCyte ECHO acoustic dispenser. Frozen cells were thawed and resuspended in assay stimulation buffer (Cisbio) containing 0.5 mM 3-iso-butyl-1-methylxanthine (IBMX, Sigma) to achieve a density of 2000 cells per well. 10 μl cells were added to assay plates using a Multidrop Combi Reagent Dispenser (ThermoFisher) before centrifugation (335 g, 1 min). Cells were incubated with compounds at 37° C. for 30 min prior to addition of cAMP detection reagents (HiRange cAMP kit, Cisbio) which were prepared according to the manufacturer's instructions. Plates were shaken for 1 h at room temperature before reading on a PHERAstar FS plate reader (BMG Labtech) using standard HTRF settings.

human GPR52 [2] = target: T1, human GPR52
Protocol: as §1

[3] = tested on: D-amphetamine-induced hyperlocomotor response; assay: Amphetamine-induced locomotor activity in rat; format: in vivo, male Sprague-Dawley rats; settings: 10 mg/kg PO, 60 min before D-amphetamine SC; activity over two hours
Protocol: The rat amphetamine-induced locomotor hyperactivity test is used to model the enhanced mesolimbic dopaminergic activity thought to contribute to psychosis in humans. […] Male Sprague-Dawley rats (200-250 g) were housed in groups with a 12 h light/dark cycle (lights on at 07.00), at an ambient temperature of 21±2° C. and with standard pelleted diet and water ad libitum. Testing was carried out in the light phase. On the day of the experiment, animals were habituated to the locomotor cages for a 60-minute period.
Locomotor activity was assessed for a two hour period after D-amphetamine treatment. Data are back-transformed means, adjusted for differences between treatment groups in activity during the 30 minutes prior to treatment with test compound or vehicle (n=10-12). Analysis was by general linear model with treatment, cohort and rack as factors. SEMs were calculated from the residuals of the statistical model.
Significant differences vs D-amphetamine are represented as *p<0.05, **p<0.01, ***p<0.001.

[4] = Brain penetration in rat (unbound brain-to-plasma ratio, IV); format: in vivo, male Sprague-Dawley rats; settings: male, Sprague-Dawley, brain and plasma, 1 mg/kg, 10 min post-dose, n = 3
Protocol: Plasma and brain exposure were evaluated to assess the brain penetration of Example 1, following IV administration. Unbound brain-to-plasma ratio (Kp,uu) was calculated, as detailed in Table 5, following experimental determination of binding in rat plasma and brain homogenate. Methods: For brain penetration assessment, male Sprague-Dawley rats (n=3) were administered a single 1 mg/kg dose (formulated in 10% DMAC+10% Solutol HS15+80% saline) via the IV route. After 10 min post-dose, animals were sacrificed and brains extracted, homogenised with 2 volumes (w/v) of 50 mM sodium phosphate buffer (pH 7.4), and analysed by LC-MS/MS. Blood samples were removed at the same time point via tail vein bleed, centrifuged and the plasma analysed by LC-MS/MS. To permit calculation of unbound brain-to-plasma ratio (Kp,uu), test compound binding in rat plasma and brain homogenate was performed, using Rapid Equilibrium Dialysis (RED). […] Fraction unbound (Fu) in plasma and brain was calculated using the following formula, then used to correct total plasma and brain concentrations to derive the Kp,uu: Fraction bound=(Total plasma or brain ratio)−(Total buffer ratio)/Total plasma or brain ratio Fraction unbound (Fu,brain or plasma)=1−Fraction bound For correction of dilution in brain binding assay: Undiluted Fu,brain=(1/dilution factor)/((1/Fv diluted))−1)+(1/dilution factor) Where dilution factor=4

[5] = Pharmacokinetic profiling in rat (IV and PO); format: in vivo, male Sprague-Dawley rats; settings: male, Sprague-Dawley, plasma, n = 3, mean ± standard deviation
Protocol: The pharmacokinetic profiles of Example 1 were assessed in male Sprague-Dawley rats via intravenous (IV) and oral (per os, PO) routes of delivery. Pharmacokinetic data (mean values±standard deviation) for Example 1 of the invention are detailed in Table 5. Methods: For pharmacokinetic analysis, groups of three male Sprague-Dawley rats, ranging in weight between 200 and 230 g, were administered a single dose of Example 1 via IV or PO route, using the doses, dose volumes and vehicles specified in Table 5. […] WinNonlin v8.2 statistics software (Pharsight Corporation, California, USA) was used to generate pharmacokinetic parameters using non-compartmental analysis.

[6] = tested on: subchronic PCP induced cognitive deficit; assay: Subchronic PCP-induced reversal learning deficit in rat; format: in vivo, female Lister Hooded rats; settings: for reversal of subchronic PCP reversal learning deficit (percent correct responding, reversal phase): vs vehicle-treated subchronic PCP group; for effect on total number of lever presses: scPCP treated rats
Protocol: Testing was carried out in the light phase. Rats underwent operant training firstly to press the left/right lever for a food reward in the presence or absence of a visual cue, and then to respond to the opposite contingency. The reversal learning task was introduced as follows. On the day before each reversal task session, a full 30-minute operant training session was conducted in order to ensure stable responding. In the initial task, animals were first exposed to a five-minute period during which the contingency (cue position relative to active lever) was the same as for the operant training session. This was followed by a 2-minute time-out period, which was signalled by the house-light being turned off. In the subsequent 5-minute period (reversal task), the contingency was reversed. Responses made on the correct and incorrect levers were recorded. Animals undertook several of these reversal learning task sessions before the beginning of the drug studies in order to ensure that they attained a stable level of performance in both phases of the task. […] At this stage, training ceased and rats were treated with PCP (2 mg/kg, IP or vehicle 0.9% saline, IP) for 7 days followed by at least 7-days washout period.
In the initial phase, the reward contingency was the same as the previous day and in the reversal phase the reward contingency was reversed.
Data are presented as mean total number of lever presses (+SEM) and percent correct response (+SEM). […] Statistical significance was assumed when P<0.05 and was determined as follows: one-way ANOVA (IBM SPSS Statistics 22) was performed in order to detect main effect of drug treatment in the initial and reversal tasks. Where a significant effect was detected, a post-hoc LSD t-test was performed in order to compare treatment groups versus the appropriate control in the reversal phase of the test.
Data are shown as mean±s.e.m. % correct responding (n=8-10) and were analysed by ANOVA and post-hoc Student's t-test.
Data are shown as the mean total number of lever presses, correct responses are shown as clear bars and incorrect responses are shown as shaded bars (n=8-10).

[7] = 6 mg/kg IP, 60 min prior to testing

T1 sequence (Q9Y2T5 whole entry): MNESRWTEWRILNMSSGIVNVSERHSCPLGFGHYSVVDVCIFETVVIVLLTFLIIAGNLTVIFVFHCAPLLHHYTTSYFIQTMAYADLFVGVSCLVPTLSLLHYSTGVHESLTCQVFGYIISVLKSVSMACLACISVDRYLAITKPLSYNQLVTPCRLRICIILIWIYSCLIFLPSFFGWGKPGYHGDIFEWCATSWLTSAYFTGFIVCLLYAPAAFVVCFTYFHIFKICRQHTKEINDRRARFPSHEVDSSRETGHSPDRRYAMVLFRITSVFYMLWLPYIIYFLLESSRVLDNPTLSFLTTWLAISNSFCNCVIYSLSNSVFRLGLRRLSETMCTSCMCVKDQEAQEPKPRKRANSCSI

Structure (SMILES): Cc1nn(-c2cc(C(O)c3cc(F)cc(C(F)(F)F)c3)ccn2)c2c1C(=O)NCC2 (single isomer, unassigned) [118 Isomer 2, 1-(4-((3-fluoro-5-(trifluoromethyl)phenyl)(hydroxy)methyl)pyridin-2-yl)-3-methyl-1,5,6,7-tetrahydro-4H-pyrazolo[4,3-c]pyridin-4-one]
- EC50 (human GPR52 [1]): 7.94 nM
- Emax (%) (human GPR52 [2]): 101%

Structure (SMILES): Cc1cc(-n2nc(Cc3cc(F)cc(C(F)(F)F)c3)nc2C)ccc1C(N)=O [FTBMT, reference compound]
- reduction of the D-amphetamine-induced hyperlocomotor response [3]: showed a trend towards a reduced D-amphetamine-induced hyperlocomotor response but statistical significance was not reached

Structure (SMILES): Cc1nn(-c2ccnc(C(O)c3cc(F)cc(C(F)(F)F)c3)c2)c2c1C(=O)NCC2 (single isomer, unassigned) [117 Isomer 2, 1-(2-((3-fluoro-5-(trifluoromethyl)phenyl)(hydroxy)methyl)pyridin-4-yl)-3-methyl-1,5,6,7-tetrahydro-4H-pyrazolo[4,3-c]pyridin-4-one]
- EC50 (human GPR52 [1]): 25.1 nM
- Emax (%) (human GPR52 [2]): 103%

Structure (SMILES): O=C1NCCc2c1cnn2-c1ccnc(Cc2cc(F)cc(C(F)(F)F)c2)c1 [Example 1, 1-(2-(3-fluoro-5-(trifluoromethyl)benzyl)pyridin-4-yl)-1,5,6,7-tetrahydro-4H-pyrazolo[4,3-c]pyridin-4-one]
- Kp uu at 10 min [4]: 0.35 ± 0.03
- reduction of the D-amphetamine-induced hyperlocomotor response [3]: reached statistical significance at 10 mg/kg
- clearance ([5]; Rat IV, 1 mg/kg): 16.4 ± 1 mL/min/kg
- bioavailability ([5]; Rat PO, 3 mg/kg): 40.4 ± 6%
- reversal of subchronic PCP reversal learning deficit (percent correct responding, reversal phase) ([6]; 10 mg/kg PO, 2 h prior to testing): significantly (P<0.05−P<0.001) reversed the deficit
- reversal of subchronic PCP reversal learning deficit (percent correct responding, reversal phase) ([6]; 30 mg/kg PO, 2 h prior to testing): significantly (P<0.05−P<0.001) reversed the deficit
- effect on total number of lever presses ([6]; 3, 10 and 30 mg/kg PO, 2 h prior to testing): no significant effects

Structure (SMILES): O=C1NCCc2c1cnn2-c1ccnc(C(O)c2cc(F)cc(C(F)(F)F)c2)c1 (single isomer, unassigned) [Example 36 Isomer 2, 1-(2-((3-fluoro-5-(trifluoromethyl)phenyl)(hydroxy)methyl)pyridin-4-yl)-1,5,6,7-tetrahydro-4H-pyrazolo[4,3-c]pyridin-4-one]
- EC50 (human GPR52 [1]): 251 nM
- Emax (%) (human GPR52 [2]): 94%

Structure (SMILES): O=C1NCCc2c1cnn2-c1ccnc(C(O)c2cc(F)cc(C(F)(F)F)c2)c1 (single isomer, unassigned) [Example 36 Isomer 1, 1-(2-((3-fluoro-5-(trifluoromethyl)phenyl)(hydroxy)methyl)pyridin-4-yl)-1,5,6,7-tetrahydro-4H-pyrazolo[4,3-c]pyridin-4-one]
- EC50 (human GPR52 [1]): 1580 nM
- Emax (%) (human GPR52 [2]): 72%

Structure (SMILES): Oc1cc2c(cc1O)C(c1ccccc1)CNCC2 (centres unmarked) [SKF-38393, reference compound]
- effect on total number of lever presses [6, 7]: no significant effects
- reversal of subchronic PCP reversal learning deficit (percent correct responding, reversal phase) [6, 7]: significantly (P<0.05−P<0.001) reversed the deficit

Structure (SMILES): CC1Cc2c(cnn2-c2ccnc(Cc3cc(F)cc(C(F)(F)F)c3)c2)C(=O)N1 (single isomer, unassigned) [Example 40 Isomer 2, 1-(2-(3-fluoro-5-(trifluoromethyl)benzyl)pyridin-4-yl)-6-methyl-1,5,6,7-tetrahydro-4H-pyrazolo[4,3-c]pyridin-4-one]
- EC50 (human GPR52 [1]): 126 nM
- Emax (%) (human GPR52 [2]): 83%

Structure (SMILES): O=C1NCCc2c1cnn2-c1ccnc(C(F)(F)c2cc(F)cc(C(F)(F)F)c2)c1 [Example 38, 1-(2-(difluoro(3-fluoro-5-(trifluoromethyl)phenyl)methyl)pyridin-4-yl)-1,5,6,7-tetrahydro-4H-pyrazolo[4,3-c]pyridin-4-one]
- Emax (human GPR52 [1]): 55%
- EC50 (human GPR52 [1]): 631 nM

Structure (SMILES): Cc1cc(Cc2ccnc(-n3ncc4c3CCN(C)C4=O)c2)cnc1F [Example 7, 1-(4-((6-fluoro-5-methylpyridin-3-yl)methyl)pyridin-2-yl)-5-methyl-1,5,6,7-tetrahydro-4H-pyrazolo[4,3-c]pyridin-4-one]
- Emax (human GPR52 [1]): 83%
- EC50 (human GPR52 [1]): 200 nM

Structure (SMILES): O=C1NCCc2c1cnn2-c1ccnc(Cc2cc3ccccc3s2)c1 [Example 69, 1-(2-(benzo[b]thiophen-2-ylmethyl)pyridin-4-yl)-1,5,6,7-tetrahydro-4H-pyrazolo[4,3-c]pyridin-4-one]
- Emax (human GPR52 [1]): 60%
- EC50 (human GPR52 [1]): 126 nM
